Assay results reported in US20140249084A1, “PTH-CONTAINING THERAPEUTIC/PROPHYLACTIC AGENT FOR OSTEOPOROSIS, CHARACTERIZED IN THAT PTH IS ADMINISTERED ONCE A WEEK IN A UNIT DOSE OF 100 TO 200 UNITS” (ASAHI KASEI PHARMA CORPORATION, priority 2009, published 2014).

Key:
[1] = system: high-risk patients diagnosed with primary osteoporosis; assay: Femur (neck, proximal) bone density by DXA, Working Example 2; assay type: in vivo, human; settings: 200 units once a week; for Change in bone density (%): patients taking glucocorticoid
Experimental: For the bone density of the femur, only the left side of the proximal part of the femur, rotated 20°, was measured at the start and every 24 weeks thereafter using dual-energy x-ray absorptiometry (DXA).

[2] = system: patients diagnosed with primary osteoporosis; assay: Lumbar spine bone mineral density by DXA, Working Example 1 (5 or 100 units once a week); assay type: in vivo, human; settings: low-risk patients, only one patient
Experimental: (§1) Both the 5 and 100 unit groups were administered two tablets of a calcium agent (containing 500 mg of precipitated calcium carbonate [200 mg as calcium] per tablet) once a day.
(§2) The osteoporosis patients were classified as condition shown in Table 1 based on the bone fracture risk factors present, as in Non-patent Reference 13, and compared. High-risk patients were defined as having all three factors involving age, prevalent vertebral fractures, and bone density or bone atrophy; low-risk patients were defined as other than the above.

[3] = system: patients diagnosed with primary osteoporosis; assay: New vertebral fractures by x-ray (method of Genant), Working Example 1; assay type: in vivo, human; settings: for Incidence (%) / No. of fractures / No. with fractures: new vertebral fractures every 26 weeks; for No. of vertebral fractures / No. with fractures (persons): new vertebral fractures
Experimental: as §1, §2

[4] = in vivo
Experimental: The serum calcium was measured at the start, after 12 weeks, after 24 weeks, after 48 weeks, and after 72 weeks. Serum calcium standard value: 8.4 to 10.4 mg/dL. The standard concomitant drug (610 mg of calcium, 400 IU of vitamin D3, and 30 mg of magnesium) was taken once a day after dinner from the time of consent to the end of the trial.

[5] = system: high-risk patients diagnosed with primary osteoporosis; assay: Vertebral fractures (new+worsening), Kaplan-Meier estimation, Working Example 2; assay type: in vivo, human; settings: after 72 weeks; FAS; 200 units once a week
Source text: The incidence of bone fractures was checked by frontal and lateral x-rays of the fourth thoracic to the fourth lumbar spine taken at the start and every 24 weeks thereafter.
The incidence of vertebral fractures (new±worsening) after 72 weeks by Kaplan-Meier estimation in the FAS of the fracture study was 3.5% in the PTH200 group and 16.3% in the P group. The incidence with 200 units of this drug was lower than in the placebo group (log rank test, p<0.0001). […] When the six-month vertebral fracture (new+worsening) incidence was compared between groups, the incidence of the PTH200 group was lower than that of the P group in all divisions consisting of within 24 weeks, 24 to 48 weeks, and 48 to 72 weeks.

[6] = high-risk patients, 5 units once a week, After 26 W
[7] = high-risk patients, 5 units once a week, After 52 W
[8] = high-risk patients, 5 units once a week, After 78 W
[9] = high-risk patients, 5 units once a week, After 104 W
[10] = high-risk patients, 5 units once a week, After 130 W
[11] = high-risk patients, 100 units once a week, After 26 W
[12] = high-risk patients, 100 units once a week, After 52 W
[13] = high-risk patients, 100 units once a week, After 78 W
[14] = high-risk patients, 100 units once a week, After 104 W
[15] = high-risk patients, 100 units once a week, After 130 W
[16] = low-risk patients, 5 units once a week, After 26 W
[17] = low-risk patients, 5 units once a week, After 52 W
[18] = low-risk patients, 5 units once a week, After 78 W
[19] = low-risk patients, 5 units once a week, After 104 W
[20] = low-risk patients, 5 units once a week, After 130 W
[21] = low-risk patients, 100 units once a week, After 26 W
[22] = low-risk patients, 100 units once a week, After 52 W
[23] = low-risk patients, 100 units once a week, After 78 W
[24] = low-risk patients, 100 units once a week, After 104 W
[25] = low-risk patients, 100 units once a week, After 130 W
[26] = high-risk patients, 5 units once a week
[27] = high-risk patients, 100 units once a week
[28] = low-risk patients, 5 units once a week
[29] = low-risk patients, 100 units once a week

## teriparatide acetate
[1]; Neck of femur, 24 W, history of Alfacalcidol
  Percentage change in bone density (%): 1.64%
[1]; Neck of femur, 24 W, history of Calcitriol
  Percentage change in bone density (%): −0.60%
[1]; Neck of femur, 24 W, history of Calcium L-aspartate
  Percentage change in bone density (%): 1.44%
[1]; Neck of femur, 24 W, history of Calcium lactate
  Percentage change in bone density (%): 0.30%
[1]; Neck of femur, 24 W, history of Elcatonin
  Percentage change in bone density (%): 1.62%
[1]; Neck of femur, 24 W, history of Menatetrenone
  Percentage change in bone density (%): 0.72%
[1]; Neck of femur, 24 W, history of Raloxifene hydrochloride
  Percentage change in bone density (%): 0.21%
[1]; Neck of femur, 24 W
  Change in bone density (%): 2.53%
[1]; Neck of femur, 48 W, history of Alfacalcidol
  Percentage change in bone density (%): 0.85%
[1]; Neck of femur, 48 W, history of Calcitriol
  Percentage change in bone density (%): −4.03%
[1]; Neck of femur, 48 W, history of Calcium L-aspartate
  Percentage change in bone density (%): 1.88%
[1]; Neck of femur, 48 W, history of Calcium lactate
  Percentage change in bone density (%): −4.35%
[1]; Neck of femur, 48 W, history of Elcatonin
  Percentage change in bone density (%): 0.72%
[1]; Neck of femur, 48 W, history of Menatetrenone
  Percentage change in bone density (%): −3.18%
[1]; Neck of femur, 48 W, history of Raloxifene hydrochloride
  Percentage change in bone density (%): 1.03%
[1]; Neck of femur, 48 W
  Change in bone density (%): 2.79%
[1]; Neck of femur, 72 W, history of Alfacalcidol
  Percentage change in bone density (%): 2.19%
[1]; Neck of femur, 72 W, history of Calcitriol
  Percentage change in bone density (%): −3.53%
[1]; Neck of femur, 72 W, history of Calcium L-aspartate
  Percentage change in bone density (%): 4.17%
[1]; Neck of femur, 72 W, history of Calcium lactate
  Percentage change in bone density (%): −2.53%
[1]; Neck of femur, 72 W, history of Elcatonin
  Percentage change in bone density (%): 3.15%
[1]; Neck of femur, 72 W, history of Menatetrenone
  Percentage change in bone density (%): −0.78%
[1]; Neck of femur, 72 W, history of Raloxifene hydrochloride
  Percentage change in bone density (%): −0.51%
[1]; Neck of femur, 72 W
  Change in bone density (%): 2.44%
[1]; Proximal femur, 24 W, history of Alfacalcidol
  Percentage change in bone density (%): 2.77%
[1]; Proximal femur, 24 W, history of Calcitriol
  Percentage change in bone density (%): −1.40%
[1]; Proximal femur, 24 W, history of Calcium L-aspartate
  Percentage change in bone density (%): 1.76%
[1]; Proximal femur, 24 W, history of Calcium lactate
  Percentage change in bone density (%): 1.78%
[1]; Proximal femur, 24 W, history of Elcatonin
  Percentage change in bone density (%): 3.86%
[1]; Proximal femur, 24 W, history of Menatetrenone
  Percentage change in bone density (%): 0.60%
[1]; Proximal femur, 24 W, history of Raloxifene hydrochloride
  Percentage change in bone density (%): 2.44%
[1]; Proximal femur, 24 W
  Change in bone density (%): 2.46%
[1]; Proximal femur, 48 W, history of Alfacalcidol
  Percentage change in bone density (%): 2.31%
[1]; Proximal femur, 48 W, history of Calcitriol
  Percentage change in bone density (%): −1.05%
[1]; Proximal femur, 48 W, history of Calcium L-aspartate
  Percentage change in bone density (%): 2.28%
[1]; Proximal femur, 48 W, history of Calcium lactate
  Percentage change in bone density (%): −1.68%
[1]; Proximal femur, 48 W, history of Elcatonin
  Percentage change in bone density (%): 3.44%
[1]; Proximal femur, 48 W, history of Menatetrenone
  Percentage change in bone density (%): −0.56%
[1]; Proximal femur, 48 W, history of Raloxifene hydrochloride
  Percentage change in bone density (%): 2.26%
[1]; Proximal femur, 48 W
  Change in bone density (%): 3.39%
[1]; Proximal femur, 72 W, history of Alfacalcidol
  Percentage change in bone density (%): 2.31%
[1]; Proximal femur, 72 W, history of Calcitriol
  Percentage change in bone density (%): −0.04%
[1]; Proximal femur, 72 W, history of Calcium L-aspartate
  Percentage change in bone density (%): 3.69%
[1]; Proximal femur, 72 W, history of Calcium lactate
  Percentage change in bone density (%): −3.20%
[1]; Proximal femur, 72 W, history of Elcatonin
  Percentage change in bone density (%): 4.41%
[1]; Proximal femur, 72 W, history of Menatetrenone
  Percentage change in bone density (%): −1.40%
[1]; Proximal femur, 72 W, history of Raloxifene hydrochloride
  Percentage change in bone density (%): 3.03%
[1]; Proximal femur, 72 W
  Change in bone density (%): 3.06%
[2]; After 26 W
  Lumbar spine bone mineral density (% change): 3.2%
[2]; After 52 W
  Lumbar spine bone mineral density (% change): 6.1%
[2]; After 78 W
  Lumbar spine bone mineral density (% change): 12.0%
[2]; Final check
  Lumbar spine bone mineral density (% change): 12.0%
[3]; [6]
  Incidence (%): 9.5%
  No. of fractures: 8
  No. with fractures: 6
[3]; [7]
  Incidence (%): 11.1%
  No. of fractures: 9
  No. with fractures: 7
[3]; [8]
  Incidence (%): 7.0%
  No. of fractures: 4
  No. with fractures: 4
[3]; [9]
  Incidence (%): 2.9%
  No. of fractures: 1
  No. with fractures: 1
[3]; [10]
  No. of fractures: 0
  No. with fractures: 0
[3]; [11]
  Incidence (%): 2.0%
  No. of fractures: 1
  No. with fractures: 1
[3]; [12]
  Incidence (%): 2.0%
  No. of fractures: 1
  No. with fractures: 1
[3]; [13]
  Incidence (%): 2.2%
  No. of fractures: 1
  No. with fractures: 1
[3]; [14]
  No. of fractures: 0
  No. with fractures: 0
[3]; [15]
  No. of fractures: 0
  No. with fractures: 0
[3]; [16]
  No. of fractures: 0
  No. with fractures: 0
[3]; [17]
  Incidence (%): 4.8%
  No. of fractures: 1
  No. with fractures: 1
[3]; [18]
  No. of fractures: 0
  No. with fractures: 0
[3]; [19]
  No. of fractures: 0
  No. with fractures: 0
[3]; [20]
  No. of fractures: 0
  No. with fractures: 0
[3]; [21]
  Incidence (%): 8.3%
  No. of fractures: 2
  No. with fractures: 1
[3]; [22]
  No. of fractures: 0
  No. with fractures: 0
[3]; [23]
  No. of fractures: 0
  No. with fractures: 0
[3]; [24]
  No. of fractures: 0
  No. with fractures: 0
[3]; [25]
  No. of fractures: 0
  No. with fractures: 0
[3]; [26]
  No. of vertebral fractures: 22
  No. with fractures (persons): 13 persons
[3]; [27]
  No. of vertebral fractures: 3
  No. with fractures (persons): 3 persons
[3]; [28]
  No. of vertebral fractures: 1
  No. with fractures (persons): 1 persons
[3]; [29]
  No. of vertebral fractures: 2
  No. with fractures (persons): 1 persons
[4]
  Corrected serum calcium, Max: 10.0 mg/dL
  Manifestation of hypercalcemia or hypercalciuria: No manifestation of hypercalcemia or hypercalciuria was found
  Patients with serum calcium exceeding 11.0 mg/mL: not even one patient
  Safety in terms of the serum calcium across renal function groups: equivalent safety in terms of the serum calcium in all groups
[5]
  Incidence of vertebral fractures (new±worsening) by Kaplan-Meier estimation: 3.5%
